According to patent publication US10703733B2, “MCL-1 inhibitors” (Gilead Sciences, Inc., priority 2018, dated 2020):
Like-named read-outs stand apart in the source and are kept apart here.

How the values were obtained:
SKBR3 cells = assay: SKBR3 Cell Viability Assay (CellTiter Glo); type: cell-based; conditions: CellTiter Glo luminescence, read-out: MCL-1 CV SKBR3 EC50
Method in brief: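 SKBR3 cells (6,000/well) in McCoy 5A + 10% FBS exposed to serially diluted compound for 72 h at 37° C., 5% CO2. Viability by CellTiter Glo luminescence; % inhibition normalized to DMSO (negative) and 10 μM puromycin (positive).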

[1] = biological target: MCL-1/Bim interaction (recombinant human MCL-1 protein, residues 171-327; biotinylated human Bim peptide, residues 51-76) (Homo sapiens (Human), UniProt Q07820); assay: MCL-1/Bim Binding AlphaLISA Assay; conditions: 0.0625 nM 6xHis-Mcl-1 (171-327), 0.0625 nM biotinylated-Bim peptide
Method in brief: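 AlphaLISA with 0.0625 nM His-tagged MCL-1 (171-327) and 0.0625 nM biotinylated Bim (51-76) in 20 mM Hepes pH 7.5, 150 mM NaCl, 0.002% Brij 35, 1 mM DTT, 0.01% BSA. Compound preincubated 1 h with MCL-1, then Bim 2 h, acceptor beads 1 h, donor beads 1 h; percent inhibition against DMSO and no-protein/no-peptide controls.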

Sequence of MCL-1/Bim interaction (recombinant human MCL-1 protein, residues 171-327; biotinylated human Bim peptide, residues 51-76) (Q07820 171-327): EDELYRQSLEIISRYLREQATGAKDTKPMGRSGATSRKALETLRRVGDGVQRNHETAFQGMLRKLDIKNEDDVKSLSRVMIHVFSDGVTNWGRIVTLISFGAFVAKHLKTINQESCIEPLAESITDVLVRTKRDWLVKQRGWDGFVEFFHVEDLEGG

| EC50 (SKBR3 cells; Homo sapiens, SK-BR-3, 72 h) [nM] | IC50 [1] [nM] | EC50 (SKBR3 cells; 72 hours) [nM] | Structure (SMILES) |
| --- | --- | --- | --- |
| 71.3 | 0.095 |  | CCN(CC)C(=O)OC1CN(C(=O)N[S@@]2(=O)=NC(=O)c3ccc4c(c3)N(C[C@@H]3CC[C@H]3[C@@H](OC)/C=C/C[C@H](C)C2)C[C@@]2(CCCc3cc(Cl)ccc32)CO4)C1 [Example 226] |
| 3340 | 0.1 |  | CO[C@H]1/C=C/CCC[S@@](=O)(NC(=O)CCn2cncn2)=NC(=O)c2ccc3c(c2)N(C[C@@H]2CC[C@H]21)C[C@@]1(CCCc2cc(Cl)ccc21)CO3 [Example 42] |
| 45 | 0.136 |  | CO[C@H]1/C=C/C[C@H](C)C[S@@](=O)(NC(=O)c2cc3n(c2)CCc2c-3cnn2C)=NC(=O)c2ccc3c(c2)N(C[C@@H]2CC[C@H]21)C[C@@]1(CCCc2cc(Cl)ccc21)CO3 [Example 208] |
| 616 | 0.1 |  | CO[C@H]1/C=C/CCC[S@@](=O)(NC(=O)CCc2nccs2)=NC(=O)c2ccc3c(c2)N(C[C@@H]2CC[C@H]21)C[C@@]1(CCCc2cc(Cl)ccc21)CO3 [Example 91] |
| 43 | 0.06 |  | CO[C@H]1/C=C/C[C@H](C)C[S@@](=O)(NC(=O)N[C@@H]2CCOC2)=NC(=O)c2ccc3c(c2)N(C[C@@H]2CC[C@H]21)C[C@@]1(CCCc2cc(Cl)ccc21)CO3 [Example 155] |
| 194 | 0.085 |  | COc1nc(OC)c(C(=O)N[S@@]2(=O)=NC(=O)c3ccc4c(c3)N(C[C@@H]3CC[C@H]3[C@@H](OC)/C=C/C[C@H](C)C2)C[C@@]2(CCCc3cc(Cl)ccc32)CO4)c(OC)n1 [Example 459] |
| 105 | 0.526 |  | CO[C@H]1/C=C/C[C@H](C)C[S@@](=O)(NC(=O)c2cc3n(c2)CCCC3)=NC(=O)c2ccc3c(c2)N(C[C@@H]2CC[C@H]21)C[C@@]1(CCCc2cc(Cl)ccc21)CO3 [Example 415] |
| 17.3 | 0.024 |  | COC1CN(C(=O)N[S@@]2(=O)=NC(=O)c3ccc4c(c3)N(C[C@@H]3CC[C@H]3[C@@H](OC)/C=C/C[C@H](C)C2)C[C@@]2(CCCc3cc(Cl)ccc32)CO4)C1 [Example 362] |
| 164 | 0.127 |  | COC[C@@H]1C[C@@H]1NC(=O)N[S@@]1(=O)=NC(=O)c2ccc3c(c2)N(C[C@@H]2CC[C@H]2[C@@H](OC)/C=C/C[C@H](C)C1)C[C@@]1(CCCc2cc(Cl)ccc21)CO3 [Example 315] |
| 168 | 0.025 |  | CO[C@H]1/C=C/C[C@H](C)C[S@@](=O)(NC(=O)N[C@H]2CC2(F)F)=NC(=O)c2ccc3c(c2)N(C[C@@H]2CC[C@H]21)C[C@@]1(CCCc2cc(Cl)ccc21)CO3 [Example 161] |
| 103 | 0.042 |  | CC[C@H]1C/C=C/[C@H](OC)[C@@H]2CC[C@H]2CN2C[C@@]3(CCCc4cc(Cl)ccc43)COc3ccc(cc32)C(=O)N=[S@](=O)(NC(=O)c2cnn(C)c2)C1 [Example 201] |
| 37.3 | 0.039 |  | COc1nn(C)cc1C(=O)N[S@@]1(=O)=NC(=O)c2ccc3c(c2)N(C[C@@H]2CC[C@H]2[C@@H](O)/C=C/C[C@H](C)C1)C[C@@]1(CCCc2cc(Cl)ccc21)CO3 [Example 223] |
| 376 | 0.079 |  | COc1nnccc1C(=O)N[S@@]1(=O)=NC(=O)c2ccc3c(c2)N(C[C@@H]2CC[C@H]2[C@@H](OC)/C=C/C[C@H](C)C1)C[C@@]1(CCCc2cc(Cl)ccc21)CO3 [Example 458] |
| 512 | 0.1 |  | CO[C@H]1/C=C/CCC[S@@](=O)(NC(=O)CCc2cnn(C)n2)=NC(=O)c2ccc3c(c2)N(C[C@@H]2CC[C@H]21)C[C@@]1(CCCc2cc(Cl)ccc21)CO3 [Example 46] |
| 64.3 | 0.068 |  | CO[C@H]1/C=C/C[C@H](C)C[S@@](=O)(NC(=O)N2CC(OC)(c3nccn3C)C2)=NC(=O)c2ccc3c(c2)N(C[C@@H]2CC[C@H]21)C[C@@]1(CCCc2cc(Cl)ccc21)CO3 [Example 276] |
| 25 | 0.029 |  | COC1CCN(C2CN(C(=O)N[S@@]3(=O)=NC(=O)c4ccc5c(c4)N(C[C@@H]4CC[C@H]4[C@@H](OC)/C=C/C[C@H](C)C3)C[C@@]3(CCCc4cc(Cl)ccc43)CO5)C2)CC1 [Example 287] |
|  | 2.7 | 5830 | CCC(=O)N[S@]1(=O)=NC(=O)c2ccc3c(c2)N(C[C@@H]2CC[C@H]2[C@@H](OCCN2CCOCC2)/C=C/CCC1)C[C@@]1(CCCc2cc(Cl)ccc21)CO3 [Example 66] |
| 161 | 0.52 |  | COc1c(C(=O)N[S@@]2(=O)=NC(=O)c3ccc4c(c3)N(C[C@@H]3CC[C@H]3[C@@H](OC)/C=C/C[C@H](C)C2)C[C@@]2(CCCc3cc(Cl)ccc32)CO4)cn2c1C[C@H](OC)C2 [Example 451] |
| 91 | 0.082 |  | CC[C@H]1C/C=C/[C@H](OC)[C@@H]2CC[C@H]2CN2C[C@@]3(CCCc4cc(Cl)ccc43)COc3ccc(cc32)C(=O)N=[S@](=O)(NC(=O)c2cc3n(c2)CCOC3)C1 [Example 202] |
| 141 | 0.08 |  | CO[C@H]1/C=C/C[C@H](C)C[S@@](=O)(NC(=O)N[C@@H]2C[C@@H]2F)=NC(=O)c2ccc3c(c2)N(C[C@@H]2CC[C@H]21)C[C@@]1(CCCc2cc(Cl)ccc21)CO3 [Example 116] |

| Structure (SMILES) | EC50 (SKBR3 cells; Homo sapiens, SK-BR-3, 72 h) [nM] | IC50 [1] [nM] | EC50 (SKBR3 cells; 72 hours) [nM] |
| --- | --- | --- | --- |
| CO[C@H]1/C=C/CCC[S@@](=O)(NC(=O)CC(F)(F)F)=NC(=O)c2ccc3c(c2)N(C[C@@H]2CC[C@H]21)C[C@@]1(CCCc2cc(Cl)ccc21)CO3 [Example 23] | 1450 | 0.8 |  |
